Reference: PMC9944328 (Nature Communications, 2023)
Read-outs that look alike come from different tables or passages of the source.

System: SSTR2 mutants
Assay: SSTRs Gi-mediated cAMP inhibition, GloSensor, HEK293, 5 μM forskolin, 15 min room temperature (SSTR2 mutants)
Format: cell-based, human
Design: Best-fit Bottom, cAMP inhibition / Best-fit Top, cAMP inhibition / Span, cAMP inhibition / Bottom (best-fit value) / Top (best-fit value) / Span (best-fit value) / Span (best-fit) / Bottom (best-fit) / Top (best-fit) / Best-fit Bottom / Best-fit Top / Best-fit Span / Top / Span: scale not given here
Procedure: The levels of the intracellular 3′, 5′-cyclic AMP (cAMP) were measured by the GloSensor cAMP assay (Promega) as described in the previous studies[28],[41] which has been widely used. The human full-length SSTRs and mutants were cloned into the pcDNA3.1+ vector with a HA signal sequence followed by a Flag tag at the N-terminus. HEK293 cells (ATCC, CRL-1573) were seeded into 6-well microplates at a density of 1.0 × 10^6 cells/well and cultured for 24 h at 37 °C with 5% CO2. Cells were then co-transfected with SSTR wild-type or mutants and GloSensor plasmids. After 24 h of transfection, the cells were dissociated with TrypLE™ Express Enzyme (1X) (Thermo Fisher Scientific) and collected by centrifugation at 500 × g for 5 min. Then the collected cells were suspended in Hank’s balanced salt solution [HBSS (Thermo Fisher Scientific)] supplemented with […] (YEASEN), and then the suspension cells were seeded into 96-well plates with 90 μl/well. After incubating at room temperature for 40 min, 5 μM forskolin and ligands diluted in HBSS were added to each well and the plates were incubated at room temperature for 15 min. […] were measured using the Synergy H1 microplate reader (BioTek) and the data presented are means of at least three independent experiments.

C[C@@H](O)[C@@H]1NC(=O)[C@H](CCCCN)NC(=O)[C@@H](Cc2c[nH]c3ccccc23)NC(=O)[C@H](Cc2ccccc2)NC(=O)[C@@H](NC(=O)[C@H](N)Cc2ccccc2)CSSC[C@@H](C(=O)N[C@H](CO)[C@@H](C)O)NC1=O [octreotide]
Best-fit Top, cAMP inhibition (SSTR2 I195A-1, run 1): 99.51 | LogEC50, cAMP inhibition (SSTR2 I195A-1, run 1): -8.167 | Span, cAMP inhibition (SSTR2 I195A-1, run 1): 98.37 | EC50 (SSTR2 I195A-1, run 1, read-out: EC50, cAMP inhibition): 6.8 nM | Best-fit Bottom, cAMP inhibition (SSTR2 I195A-2, run 2): -0.2331 | Best-fit Top, cAMP inhibition (SSTR2 I195A-2, run 2): 94.69 | LogEC50, cAMP inhibition (SSTR2 I195A-2, run 2): -8.189 | Span, cAMP inhibition (SSTR2 I195A-2, run 2): 94.92 | EC50 (SSTR2 I195A-2, run 2, read-out: EC50, cAMP inhibition): 6.47 nM | Best-fit Bottom, cAMP inhibition (SSTR2 I195A-3, run 3): 2.536 | Best-fit Top, cAMP inhibition (SSTR2 I195A-3, run 3): 107 | LogEC50, cAMP inhibition (SSTR2 I195A-3, run 3): -8.29 | Span, cAMP inhibition (SSTR2 I195A-3, run 3): 104.4 | EC50 (SSTR2 I195A-3, run 3, read-out: EC50, cAMP inhibition): 5.13 nM | Best-fit Bottom, cAMP inhibition (SSTR2 L99A-1, run 1): -0.05878 | Best-fit Top, cAMP inhibition (SSTR2 L99A-1, run 1): 83.27 | LogEC50, cAMP inhibition (SSTR2 L99A-1, run 1): -8.764 | Span, cAMP inhibition (SSTR2 L99A-1, run 1): 83.33 | EC50 (SSTR2 L99A-1, run 1, read-out: EC50, cAMP inhibition): 1.72 nM | Best-fit Bottom, cAMP inhibition (SSTR2 L99A-2, run 2): 3.887 | Best-fit Top, cAMP inhibition (SSTR2 L99A-2, run 2): 89.82 | LogEC50, cAMP inhibition (SSTR2 L99A-2, run 2): -8.724 | Span, cAMP inhibition (SSTR2 L99A-2, run 2): 85.94 | EC50 (SSTR2 L99A-2, run 2, read-out: EC50, cAMP inhibition): 1.89 nM | Best-fit Bottom, cAMP inhibition (SSTR2 L99A-3, run 3): 6.223 | Best-fit Top, cAMP inhibition (SSTR2 L99A-3, run 3): 104 | LogEC50, cAMP inhibition (SSTR2 L99A-3, run 3): -9.836 | Span, cAMP inhibition (SSTR2 L99A-3, run 3): 97.82 | EC50 (SSTR2 L99A-3, run 3, read-out: EC50, cAMP inhibition): 0.146 nM | Best-fit Bottom, cAMP inhibition (SSTR2 Q102A-1, run 1): 2.423 | Best-fit Top, cAMP inhibition (SSTR2 Q102A-1, run 1): 108.7 | LogEC50, cAMP inhibition (SSTR2 Q102A-1, run 1): -7.926 | Span, cAMP inhibition (SSTR2 Q102A-1, run 1): 106.2 | EC50 (SSTR2 Q102A-1, run 1, read-out: EC50, cAMP inhibition): 11.9 nM | Best-fit Bottom, cAMP inhibition (SSTR2 Q102A-2, run 2): 0.4721 | Best-fit Top, cAMP inhibition (SSTR2 Q102A-2, run 2): 108.9 | LogEC50, cAMP inhibition (SSTR2 Q102A-2, run 2): -7.92 | Span, cAMP inhibition (SSTR2 Q102A-2, run 2): 108.4 | EC50 (SSTR2 Q102A-2, run 2, read-out: EC50, cAMP inhibition): 12 nM | Best-fit Bottom, cAMP inhibition (SSTR2 Q102A-3, run 3): 3.028 | Best-fit Top, cAMP inhibition (SSTR2 Q102A-3, run 3): 105.6 | LogEC50, cAMP inhibition (SSTR2 Q102A-3, run 3): -7.863 | Span, cAMP inhibition (SSTR2 Q102A-3, run 3): 102.6 | EC50 (SSTR2 Q102A-3, run 3, read-out: EC50, cAMP inhibition): 13.7 nM | Best-fit Top, cAMP inhibition (SSTR2 T194A-1, run 1): 84.79 | LogEC50, cAMP inhibition (SSTR2 T194A-1, run 1): -7.026 | Span, cAMP inhibition (SSTR2 T194A-1, run 1): 77.01 | EC50 (SSTR2 T194A-1, run 1, read-out: EC50, cAMP inhibition): 94.2 nM | Best-fit Top, cAMP inhibition (SSTR2 T194A-2, run 2): 94.26 | LogEC50, cAMP inhibition (SSTR2 T194A-2, run 2): -7.558 | Span, cAMP inhibition (SSTR2 T194A-2, run 2): 87.81 | EC50 (SSTR2 T194A-2, run 2, read-out: EC50, cAMP inhibition): 27.7 nM | Best-fit Top, cAMP inhibition (SSTR2 T194A-3, run 3): 95.49 | LogEC50, cAMP inhibition (SSTR2 T194A-3, run 3): -7.626 | Span, cAMP inhibition (SSTR2 T194A-3, run 3): 91.25 | EC50 (SSTR2 T194A-3, run 3, read-out: EC50, cAMP inhibition): 23.7 nM | Best-fit Bottom, cAMP inhibition (SSTR2 V103A-1, run 1): 3.112 | Best-fit Top, cAMP inhibition (SSTR2 V103A-1, run 1): 97.5 | LogEC50, cAMP inhibition (SSTR2 V103A-1, run 1): -8.546 | Span, cAMP inhibition (SSTR2 V103A-1, run 1): 94.39 | EC50 (SSTR2 V103A-1, run 1, read-out: EC50, cAMP inhibition): 2.85 nM | Best-fit Bottom, cAMP inhibition (SSTR2 V103A-2, run 2): -14.84 | Best-fit Top, cAMP inhibition (SSTR2 V103A-2, run 2): 85.83 | LogEC50, cAMP inhibition (SSTR2 V103A-2, run 2): -8.054 | Span, cAMP inhibition (SSTR2 V103A-2, run 2): 100.7 | EC50 (SSTR2 V103A-2, run 2, read-out: EC50, cAMP inhibition): 8.84 nM | Best-fit Bottom, cAMP inhibition (SSTR2 V103A-3, run 3): -3.777 | Best-fit Top, cAMP inhibition (SSTR2 V103A-3, run 3): 89.06 | LogEC50, cAMP inhibition (SSTR2 V103A-3, run 3): -7.947 | Span, cAMP inhibition (SSTR2 V103A-3, run 3): 92.84 | EC50 (SSTR2 V103A-3, run 3, read-out: EC50, cAMP inhibition): 11.3 nM | Best-fit Bottom, cAMP inhibition (SSTR2 Y50A-1, run 1): 9.945 | Best-fit Top, cAMP inhibition (SSTR2 Y50A-1, run 1): 106.2 | LogEC50, cAMP inhibition (SSTR2 Y50A-1, run 1): -9.897 | Span, cAMP inhibition (SSTR2 Y50A-1, run 1): 96.25 | Best-fit Bottom, cAMP inhibition (SSTR2 Y50A-2, run 2): -3.529 | Best-fit Top, cAMP inhibition (SSTR2 Y50A-2, run 2): 103.6 | LogEC50, cAMP inhibition (SSTR2 Y50A-2, run 2): -10.54 | Span, cAMP inhibition (SSTR2 Y50A-2, run 2): 107.2 | EC50 (SSTR2 Y50A-2, run 2, read-out: EC50, cAMP inhibition): 0.0288 nM | Best-fit Bottom, cAMP inhibition (SSTR2 Y50A-3, run 3): 9.945 | Best-fit Top, cAMP inhibition (SSTR2 Y50A-3, run 3): 106.2 | LogEC50, cAMP inhibition (SSTR2 Y50A-3, run 3): -9.897 | Span, cAMP inhibition (SSTR2 Y50A-3, run 3): 96.25 | EC50 (SSTR2 Y50A-3, run 3, read-out: EC50, cAMP inhibition): 0.127 nM | Emax (Suppl. Tables 4/5, SSTR2 T194(45.51)H, n=3): 88.27±7.62 %WT SSTR2 | Emax (Suppl. Tables 4/5, SSTR2 V103(2.64)N, n=3): 94.00±3.65 %WT SSTR2 | EC50 (Suppl. Tables 4/5, SSTR2 V103(2.64)N, n=3, read-out: EC50): 0.23 nM | Receptor activation of mutant (T194(45.51)H in SSTR2): significantly reduced receptor activation | Bottom (best-fit value) (T194A-1, run 1): 7.78 | Bottom (best-fit value) (T194A-2, run 2): 6.447 | Bottom (best-fit value) (T194A-3, run 3): 4.244 | Bottom (best-fit value) (T287A-1, run 1): 2.841 | LogEC50 (best-fit value) (T287A-1, run 1): -9.206 | Span (best-fit value) (T287A-1, run 1): 86.99 | Top (best-fit value) (T287A-1, run 1): 89.83 | EC50 (T287A-1, run 1, read-out: EC50 (best-fit value)): 0.623 nM | Bottom (best-fit value) (T287A-2, run 2): -10.83 | LogEC50 (best-fit value) (T287A-2, run 2): -9.285 | Span (best-fit value) (T287A-2, run 2): 118.8 | Top (best-fit value) (T287A-2, run 2): 108 | EC50 (T287A-2, run 2, read-out: EC50 (best-fit value)): 0.519 nM | Bottom (best-fit value) (T287A-3, run 3): 2.734 | LogEC50 (best-fit value) (T287A-3, run 3): -9.182 | Span (best-fit value) (T287A-3, run 3): 94.95 | Top (best-fit value) (T287A-3, run 3): 97.68 | EC50 (T287A-3, run 3, read-out: EC50 (best-fit value)): 0.658 nM | EC50 of mutant versus wild-type (V103(2.64)N mutant of SSTR2): retained a similar EC50 as wild-type receptor | Bottom (best-fit value) (W188A-1, run 1): -1.717 | LogEC50 (best-fit value) (W188A-1, run 1): -9.896 | Span (best-fit value) (W188A-1, run 1): 106.4 | Top (best-fit value) (W188A-1, run 1): 104.7 | EC50 (W188A-1, run 1, read-out: EC50 (best-fit value)): 0.127 nM | Bottom (best-fit value) (W188A-2, run 2): 1.331 | LogEC50 (best-fit value) (W188A-2, run 2): -10.14 | Span (best-fit value) (W188A-2, run 2): 108.6
